Experimental data as given in publication PMC10444810, “Induction of open-form bile canaliculus formation by hepatocytes for evaluation of biliary drug excretion” (Communications Biology, 2023).
Values joined by “and” are separate entries in the source; they are usually repeats but may differ in a detail not shown here. Equal values may be shown once.

Assays:
CYP2C19 = target: T1, CYP2C19 (Homo sapiens, UniProt P33261); experiment: Metabolic assay, cocktail substrate method ((S)-mephenytoin to 4’-hydroxymephenytoin); format: in vitro ADME; conditions: for Enzyme activity, Mean: mean of Well-1 to Well-4
T1 construct: host or cells: PXB-cells (icHep: JFC, HUM181001B; sandwich culture: JFC)
Description: (§1) The metabolic activity of icHep and sandwich-cultured PXB-cells was measured using the cocktail substrate method of drug-metabolizing enzymes. The components of the cocktail are summarized in Supplementary Table 1. Assays were initiated by treating cells with TB containing cocktail substrates. Time point of each substrate was set when a linear increase in its metabolite production was observed. Concentrations of metabolites produced in the medium were measured by liquid chromatography-mass spectrometry (LC-MS/MS).

CYP2C9 = target: T2, CYP2C9 (Homo sapiens, UniProt P11712); experiment: Metabolic assay, cocktail substrate method (diclofenac to 4’-hydroxydiclofenac); format: in vitro ADME; conditions: for Enzyme activity, Mean: mean of Well-1 to Well-4
T2 construct: host or cells: PXB-cells (icHep: JFC, HUM181001B; sandwich culture: JFC)
Description: as §1

[1] = PXB-cells (JFC), incubation time 45 min, single wells
[2] = PXB-cells (JFC), incubation time 60 min, single wells
[3] = PXB-cells (JFC), incubation time 90 min, single wells
[4] = icHep (HUM18100B), incubation time 15 min, single wells
[5] = icHep (HUM18100B), incubation time 30 min, single wells
[6] = icHep (HUM18100B), incubation time 45 min, single wells
[7] = icHep (HUM18100B), incubation time 60 min, single wells
[8] = icHep (HUM18100B), incubation time 90 min, single wells
[9] = icHep (HUM18100B), rate per single well
[10] = icHep (JFC), incubation time 15 min, single wells
[11] = icHep (JFC), incubation time 30 min, single wells
[12] = icHep (JFC), incubation time 45 min, single wells
[13] = icHep (JFC), incubation time 60 min, single wells
[14] = icHep (JFC), incubation time 90 min, single wells

T2 sequence (P11712 whole entry): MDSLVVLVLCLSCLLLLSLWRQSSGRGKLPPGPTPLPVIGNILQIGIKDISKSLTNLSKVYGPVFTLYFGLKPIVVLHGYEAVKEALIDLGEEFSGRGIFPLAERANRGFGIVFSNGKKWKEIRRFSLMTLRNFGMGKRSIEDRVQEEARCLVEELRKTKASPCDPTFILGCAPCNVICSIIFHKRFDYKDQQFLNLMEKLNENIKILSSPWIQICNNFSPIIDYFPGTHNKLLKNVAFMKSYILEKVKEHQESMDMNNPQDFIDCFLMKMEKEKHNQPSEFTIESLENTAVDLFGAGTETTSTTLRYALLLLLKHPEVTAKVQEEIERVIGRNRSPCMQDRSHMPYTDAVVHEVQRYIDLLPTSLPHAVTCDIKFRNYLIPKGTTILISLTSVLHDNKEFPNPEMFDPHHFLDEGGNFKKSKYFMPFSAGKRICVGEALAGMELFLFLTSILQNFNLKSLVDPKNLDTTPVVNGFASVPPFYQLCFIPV
T1 sequence (P33261 whole entry): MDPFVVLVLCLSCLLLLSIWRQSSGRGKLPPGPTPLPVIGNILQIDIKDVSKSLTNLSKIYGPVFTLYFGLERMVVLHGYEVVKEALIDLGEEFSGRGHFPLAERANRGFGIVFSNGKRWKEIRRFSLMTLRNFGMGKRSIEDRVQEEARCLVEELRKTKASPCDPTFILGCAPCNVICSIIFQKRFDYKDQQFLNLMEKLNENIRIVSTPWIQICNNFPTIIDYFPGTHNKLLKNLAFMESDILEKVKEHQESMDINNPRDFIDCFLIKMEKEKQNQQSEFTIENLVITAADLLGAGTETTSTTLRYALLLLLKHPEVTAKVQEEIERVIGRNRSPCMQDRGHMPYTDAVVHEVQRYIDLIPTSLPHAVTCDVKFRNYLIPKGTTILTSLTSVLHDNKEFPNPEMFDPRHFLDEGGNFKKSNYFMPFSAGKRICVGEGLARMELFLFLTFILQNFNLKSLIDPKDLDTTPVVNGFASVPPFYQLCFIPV

CC[C@@]1(c2ccc(O)cc2)NC(=O)N(C)C1=O [4'-hydroxymephenytoin]
Enzyme activity (CYP2C19; PXB-cells (JFC), incubation time 30 min, single wells): 56.4054 pmol/106 cells and 48.3281 pmol/106 cells and 62.3033 pmol/106 cells and 62.1838 pmol/106 cells | Enzyme activity (CYP2C19; [1]): 95.7591 pmol/106 cells and 93.7057 pmol/106 cells and 89.6102 pmol/106 cells and 94.8294 pmol/106 cells | Enzyme activity (CYP2C19; [2]): 136.786 pmol/106 cells and 120.497 pmol/106 cells and 123.843 pmol/106 cells and 115.035 pmol/106 cells | Enzyme activity (CYP2C19; [3]): 86.2332 pmol/106 cells and 112.727 pmol/106 cells and 89.0355 pmol/106 cells and 99.3009 pmol/106 cells | Enzyme activity, Mean (CYP2C19; PXB-cells (JFC)): 2.25 pmol/min/106 cells | Enzyme activity (CYP2C19; [4]): 50.5312 pmol/106 cells and 52.3394 pmol/106 cells and 56.2209 pmol/106 cells and 49.5383 pmol/106 cells | Enzyme activity (CYP2C19; [5]): 80.4095 pmol/106 cells and 100.579 pmol/106 cells and 91.6841 pmol/106 cells and 101.877 pmol/106 cells | Enzyme activity (CYP2C19; [6]): 142.367 pmol/106 cells and 129.072 pmol/106 cells and 120.304 pmol/106 cells and 122.788 pmol/106 cells | Enzyme activity (CYP2C19; [7]): 162.513 pmol/106 cells and 158.829 pmol/106 cells and 171.479 pmol/106 cells and 144.395 pmol/106 cells | Enzyme activity (CYP2C19; [8]): 188.684 pmol/106 cells and 187.153 pmol/106 cells and 171.43 pmol/106 cells and 198.851 pmol/106 cells | Enzyme activity, Mean (CYP2C19; icHep (HUM18100B)): 2.55 pmol/min/106 cells | Enzyme activity (CYP2C19; [9]): 3.06 pmol/min/106 cells and 2.56 pmol/min/106 cells and 2.14 pmol/min/106 cells and 2.44 pmol/min/106 cells | Enzyme activity (CYP2C19; [10]): 42.1708 pmol/106 cells and 39.5525 pmol/106 cells and 21.6896 pmol/106 cells and 37.3866 pmol/106 cells | Enzyme activity (CYP2C19; [11]): 65.4216 pmol/106 cells and 67.8652 pmol/106 cells and 74.7797 pmol/106 cells and 75.4174 pmol/106 cells | Enzyme activity (CYP2C19; [12]): 91.82 pmol/106 cells and 75.2152 pmol/106 cells and 103.29 pmol/106 cells and 100.957 pmol/106 cells | Enzyme activity (CYP2C19; [13]): 121.361 pmol/106 cells and 85.9573 pmol/106 cells and 140.345 pmol/106 cells and 108.521 pmol/106 cells | Enzyme activity (CYP2C19; [14]): 124.213 pmol/106 cells and 122.549 pmol/106 cells and 116.257 pmol/106 cells and 126.058 pmol/106 cells | Enzyme activity, Mean (CYP2C19; icHep (JFC)): 2.38 pmol/min/106 cells

O=C(O)Cc1ccccc1Nc1c(Cl)cc(O)cc1Cl [4'-Hydroxydiclofenac]
Enzyme activity (CYP2C9; PXB-cells (JFC), incubation time 15 min, single wells): 32.4909 pmol/106 cells and 28.9867 pmol/106 cells and 32.417 pmol/106 cells and 39.4949 pmol/106 cells | Enzyme activity (CYP2C9; [1]): 103.35 pmol/106 cells and 157.866 pmol/106 cells and 142.816 pmol/106 cells and 89.3242 pmol/106 cells | Enzyme activity (CYP2C9; [2]): 194.793 pmol/106 cells and 123.239 pmol/106 cells and 152.615 pmol/106 cells and 131.028 pmol/106 cells | Enzyme activity (CYP2C9; [3]): 221.365 pmol/106 cells and 186.616 pmol/106 cells and 184.241 pmol/106 cells and 181.726 pmol/106 cells | Enzyme activity, Mean (CYP2C9; PXB-cells (JFC)): 3.17 pmol/min/106 cells | Enzyme activity (CYP2C9; [4]): 62.619 pmol/106 cells and 66.4901 pmol/106 cells and 58.8292 pmol/106 cells and 61.6593 pmol/106 cells | Enzyme activity (CYP2C9; [5]): 81.779 pmol/106 cells and 78.031 pmol/106 cells and 78.5116 pmol/106 cells and 74.8686 pmol/106 cells | Enzyme activity (CYP2C9; [6]): 182.486 pmol/106 cells and 164.871 pmol/106 cells and 179.779 pmol/106 cells and 151.258 pmol/106 cells | Enzyme activity (CYP2C9; [7]): 261.919 pmol/106 cells and 224.09 pmol/106 cells and 240.209 pmol/106 cells and 233.857 pmol/106 cells | Enzyme activity (CYP2C9; [8]): 338.304 pmol/106 cells and 344.261 pmol/106 cells and 316.721 pmol/106 cells and 314.843 pmol/106 cells | Enzyme activity, Mean (CYP2C9; icHep (HUM18100B)): 5.39 pmol/min/106 cells | Enzyme activity (CYP2C9; [9]): 6.00 pmol/min/106 cells and 4.87 pmol/min/106 cells and 5.39 pmol/min/106 cells and 5.30 pmol/min/106 cells | Enzyme activity (CYP2C9; [10]): 37.2763 pmol/106 cells and 45.1543 pmol/106 cells and 35.8326 pmol/106 cells and 34.722 pmol/106 cells | Enzyme activity (CYP2C9; [11]): 59.5169 pmol/106 cells and 77.189 pmol/106 cells and 52.7871 pmol/106 cells and 61.7238 pmol/106 cells | Enzyme activity (CYP2C9; [12]): 104.976 pmol/106 cells and 107.851 pmol/106 cells and 132.309 pmol/106 cells and 91.4661 pmol/106 cells | Enzyme activity (CYP2C9; [13]): 189.516 pmol/106 cells and 192.792 pmol/106 cells and 199.605 pmol/106 cells and 200.079 pmol/106 cells | Enzyme activity (CYP2C9; [14]): 261.512 pmol/106 cells and 227.854 pmol/106 cells and 218.992 pmol/106 cells and 224.098 pmol/106 cells | Enzyme activity, Mean (CYP2C9; icHep (JFC)): 4.42 pmol/min/106 cells | Enzyme activity (CYP2C9; icHep (JFC), rate per single well): 4.33 pmol/min/106 cells and 3.85 pmol/min/106 cells and 4.89 pmol/min/106 cells and 4.61 pmol/min/106 cells
